{
  "source": "patent US10238676B2",
  "about": "“Application of ginsenoside RG3 in preparing medicine for preventing and/or treating dementia, and medicine for treating dementia” (priority 2013, dated 2019)",
  "key": {"[1]": {"system": "intracerebral cholinergic nerve system of rat model with Alzheimer's disease", "test": "AChE positive nerve fiber density of cortex and hippocampal formation, rat model with Alzheimer's disease (D-galactose + IBO)", "format": "in vivo, Wistar rats", "details": "AD model rats, 6 weeks; for N Frontal lobe AchE positive nerve fiber density: Rg3 lotion (embodiment 7) on both sides of nose; for N Entorhinal cortex AchE positive nerve fiber density / N Occipital lobe AchE positive nerve fiber density / Parietal lobe AchE positive nerve fiber density / N Stratum lacunosum-moleculare AchE positive nerve fiber density / N Stratum moleculare of dentate gyrus AchE positive nerve fiber density / N Stratum oriens AchE positive nerve fiber density / N Stratum radiatum AchE positive nerve fiber density: Rg3 lotion topical; for N Stratum lacunosum-moleculare AchE positive nerve fiber density / N Stratum moleculare of dentate gyrus AchE positive nerve fiber density / N Stratum oriens AchE positive nerve fiber density / N Stratum radiatum AchE positive nerve fiber density: hippocampal formation", "description": "60 Wistar rats each of which having the body weight of 300-500 g are randomly divided into 6 groups, with 10 in each group, and the groups are named a preliminary elder normal control group, a preliminary elder AD model group, a positive medicine Huperzine A group, and high-dose, medium-dose and low-dose of Ginsenoside Rg3 topical preparation groups according to different treatment methods, respectively. The rats are bred in separate cages, each holding 4-5 rats, with natural lighting and random drinking and feeding provided. Physiological saline is injected in the abdominal cavity and grain of each rat in the preliminary elder normal control group; Galactose intraperitoneal injection and IBO intracerebral injection are given to all rats in the preliminary elder AD model group, the positive medicine Huperzine A group, and the high-dose, medium-dose and low-dose Ginsenoside Rg3 topical preparation groups; while the rats in the Huperzine A group and the high-dose, medium-dose and low-dose of Ginsenoside Rg3 topical preparation groups are subjected to D-galactose injection for modeling, rat of each group is given Huperzine A 0.3 mg/kg/d and Ginsenoside Rg3 10, 5, 2.5 mg/kg/d respectively. Ginsenoside Rg3 is applied to both sides of the nose of each rat of Ginsenoside Rg3 topical preparation groups. All the rats are subjected to the medicines continuously for 6 weeks and then intracerebral bilateral Meynert nuclei injection is carried out. Reference is made to a rat cerebral stereotaxic atlas for Meynert nuclei localization, and localization coordinates are AP-0.8 mm, Late 2.6 mm and DV 8.2 mm During intracerebral injection, a rat is anesthetized with 3% pentobarbital sodium (30 mg/kg) and then immobilized to a cerebral stereotaxic apparatus, physiological saline dissolved IBO (injection 1 μl for each side containing 5 μg of IBO) or 1 μl normal saline is injected slowly into a Meynert nucleus, each side takes injection for 5 minutes, and needle retaining for 10 minutes, wherein all the rats are subjected to cerebral perfusion with 4% paraformaldehyde after modeling and are then immobilized for 24 hours, and the brain is put in a sucrose phosphate buffer until brain tissue blocks sink, the blocks are frozen in a incubator and serially sectioned to […] in thickness. The sections are subjected to acetycholinesterase (AChE) histochemical staining by methods recommended by Hedreen, et al. Observation is given to the frontal lobe, the parietal lobe, the occipital lobe and the entorhinal cortex (layer II) as well as parts in a hippocampal CA1 region of the hippocampal formation such as a stratum oriens, a stratum radiatum, a stratum lacunosum-moleculare and a stratum moleculare of dentate gyrus for observing their AChE positive nerve fiber densities, and the AChE positive nerve fiber densities are counted with a number of intersections of positive fibers with a standard grid by using a micrometer used for a microscope.\nA significance level a is equal to 0.05."}, "β-amyloid protein (Aβ)": {"system": "β-amyloid protein (Aβ)", "test": "Cerebrospinal fluid β-amyloid protein content (ELISA) of patients with Alzheimer's disease", "format": "in vivo, human", "details": "AD inpatients", "method": "2 ml of cerebrospinal fluid is collected by lumbar puncture, and is stored at −80° C., the β-amyloid protein (Aβ) content is determined by using enzyme-linked immunosorbent assay (ELISA). A revised Hasegawa dementia scale (HDS-R) is used to score, and the scores before and after treatment are compared, increasing in scores means validness, and unchanging or decreasing in scores means invalidness. The enumeration data adopts χ^2 test, the comparison of measurement data adopts t-test, all data is processed by adopting SPSS12.0 statistical software."}},
  "data": [
    {"smiles": "CC(C)=CCC[C@](C)(O)[C@H]1CC[C@]2(C)[C@@H]1[C@H](O)C[C@@H]1[C@@]3(C)CC[C@H](O[C@@H]4O[C@H](CO)[C@@H](O)[C@H](O)[C@H]4O[C@@H]4O[C@H](CO)[C@@H](O)[C@H](O)[C@H]4O)C(C)(C)[C@@H]3CC[C@]12C", "note": "[Ginsenoside Rg3, 20(R)-ginsenoside Rg3]", "values": [
      {"measurement": "N Frontal lobe AchE positive nerve fiber density", "setting": "[1]; 2.5 mg/kg/d", "result": "122.7 ± 18.6^Δ 10^2 · mm^−2"},
      {"measurement": "N Frontal lobe AchE positive nerve fiber density", "setting": "[1]; 5 mg/kg/d", "result": "130.7 ± 20.8^Δ 10^2 · mm^−2"},
      {"measurement": "N Frontal lobe AchE positive nerve fiber density", "setting": "[1]; 10 mg/kg/d", "result": "143.7 ± 22.1^Δ 10^2 · mm^−2"},
      {"measurement": "N Entorhinal cortex AchE positive nerve fiber density", "setting": "[1]; 2.5 mg/kg/d", "result": "130.2 ± 15.6 10^2 · mm^−2"},
      {"measurement": "N Occipital lobe AchE positive nerve fiber density", "setting": "[1]; 2.5 mg/kg/d", "result": "145.2 ± 9.2^ΔΔ** 10^2 · mm^−2"},
      {"measurement": "Parietal lobe AchE positive nerve fiber density", "setting": "[1]; 2.5 mg/kg/d", "result": "162.9 ± 22.0^#** 10^2 · mm^−2"},
      {"measurement": "N Entorhinal cortex AchE positive nerve fiber density", "setting": "[1]; 5 mg/kg/d", "result": "142.6 ± 11.9 10^2 · mm^−2"},
      {"measurement": "N Occipital lobe AchE positive nerve fiber density", "setting": "[1]; 5 mg/kg/d", "result": "160.2 ± 10.2^ΔΔ** 10^2 · mm^−2"},
      {"measurement": "Parietal lobe AchE positive nerve fiber density", "setting": "[1]; 5 mg/kg/d", "result": "170.9 ± 21.2^#** 10^2 · mm^−2"},
      {"measurement": "N Entorhinal cortex AchE positive nerve fiber density", "setting": "[1]; 10 mg/kg/d", "result": "161.1 ± 18.3^ΔΔ**° 10^2 · mm^−2"},
      {"measurement": "N Occipital lobe AchE positive nerve fiber density", "setting": "[1]; 10 mg/kg/d", "result": "167.2 ± 12.9^ΔΔ**° 10^2 · mm^−2"},
      {"measurement": "Parietal lobe AchE positive nerve fiber density", "setting": "[1]; 10 mg/kg/d", "result": "183.9 ± 24.9^#**° 10^2 · mm^−2"},
      {"measurement": "N Stratum lacunosum-moleculare AchE positive nerve fiber density", "setting": "[1]; 2.5 mg/kg/d", "result": "77.2 ± 9.1^ΔΔ** 10^2 · mm^−2"},
      {"measurement": "N Stratum moleculare of dentate gyrus AchE positive nerve fiber density", "setting": "[1]; 2.5 mg/kg/d", "result": "119.8 ± 12.4 10^2 · mm^−2"},
      {"measurement": "N Stratum oriens AchE positive nerve fiber density", "setting": "[1]; 2.5 mg/kg/d", "result": "140.1 ± 20.5^Δ 10^2 · mm^−2"},
      {"measurement": "N Stratum radiatum AchE positive nerve fiber density", "setting": "[1]; 2.5 mg/kg/d", "result": "122.4 ± 14.4^#** 10^2 · mm^−2"},
      {"measurement": "N Stratum lacunosum-moleculare AchE positive nerve fiber density", "setting": "[1]; 5 mg/kg/d", "result": "84.2 ± 10.9^ΔΔ** 10^2 · mm^−2"},
      {"measurement": "N Stratum moleculare of dentate gyrus AchE positive nerve fiber density", "setting": "[1]; 5 mg/kg/d", "result": "131.5 ± 14.7 10^2 · mm^−2"},
      {"measurement": "N Stratum oriens AchE positive nerve fiber density", "setting": "[1]; 5 mg/kg/d", "result": "153.0 ± 22.1^Δ 10^2 · mm^−2"},
      {"measurement": "N Stratum radiatum AchE positive nerve fiber density", "setting": "[1]; 5 mg/kg/d", "result": "135.1 ± 23.9^#** 10^2 · mm^−2"},
      {"measurement": "N Stratum lacunosum-moleculare AchE positive nerve fiber density", "setting": "[1]; 10 mg/kg/d", "result": "99.2 ± 17.3^Δ 10^2 · mm^−2"},
      {"measurement": "N Stratum moleculare of dentate gyrus AchE positive nerve fiber density", "setting": "[1]; 10 mg/kg/d", "result": "142.7 ± 11.9 10^2 · mm^−2"},
      {"measurement": "N Stratum oriens AchE positive nerve fiber density", "setting": "[1]; 10 mg/kg/d", "result": "171.1 ± 16.9^Δ 10^2 · mm^−2"},
      {"measurement": "N Stratum radiatum AchE positive nerve fiber density", "setting": "[1]; 10 mg/kg/d", "result": "143.2 ± 20.5^ΔΔ 10^2 · mm^−2"},
      {"measurement": "Aβ content in cerebrospinal fluid, post treatment", "setting": "β-amyloid protein (Aβ); n = 18, Rg3 oral liquid 10 mg/d or donepezil 5 mg/d orally, 12 weeks", "result": "3.8 ± 1.5"},
      {"measurement": "Aβ content in cerebrospinal fluid, before treatment", "setting": "β-amyloid protein (Aβ); n = 18 per group, baseline", "result": "5.9 ± 2.6"}
    ]}
  ]
}
